Publication PMC10922478 (Environmental research, 2023)

What was measured:
[1] = Stable isotope tracing in mouse urine after i.p. limonene or limonene-d5; conditions: after limonene / limonene-d5 66.8 mg/kg i.p.; overnight urine
[2] = format: in vivo; conditions: human urine after limonene inhalation
[3] = ref Falk-Filipsson et al., 1993; cited from earlier work

SMILES | Detection in mouse urine [1] | Observed Tmax ([2]; creatinine-normalized peak response) [h] | Elimination t1/2 ([2]; pseudo one-compartment model) [h] | Ka (first-order urinary generation rate constant) ([2]; pseudo one-compartment model) [h⁻¹] | Ke (first-order urinary elimination rate constant) ([2]; pseudo one-compartment model) [h⁻¹] | Half-life in blood (t1/2α) [3]
C=C(C)C1CCC(C(=O)O)CC1 (stereo not drawn) [LM1, DHPA] | absent | 1 | 1.01 ± 0.40 | 0.93 ± 0.37 | 0.68 ± 0.27 | 
C=C(C)[C@H]1CC=C(C)CC1 [Limonene] |  |  |  |  |  | ~ 3 min
